14 compounds from PubChem BioAssay (NCI) can be followed below.

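Test compounds were applied to cells in 96-well plates for 48 hours at 5 doses. TGI denotes the concentration required for complete inhibition of growth.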

Some test systems named below: HCT-116 colon; HOP-92 NSCLC; NCI-H460 lung; OVCAR-5 ovarian; SF-268 CNS; SF-295 CNS; SK-MEL-28 melanoma; TK-10 renal; HCC-2998 colon; UACC-62 melanoma; UO-31 renal.
Common to all, as to assay: growth of human tumour cells (NCI), 48 h

Turning to `Cc1nc2sc3cccc(Cl)c3n2c(=O)c1N=Nc1ccc(Cl)cc1`, the TGI in the assay with HCT-116 colon, with HOP-92 NSCLC, in the assay with NCI-H460 lung, with OVCAR-5 ovarian, in the assay on SF-268 CNS and with SF-295 CNS was greater than 100 µM in each case. Besides, the TGI in the assay on SK-MEL-28 melanoma and in the assay on TK-10 renal was greater than 100 µM throughout.

With `COc1cc(C2c3cc4c(cc3OC(NN)C2C)OCO4)cc(OC)c1O` (stereo not given), the TGI was 29.6 µM with HCC-2998 colon; 20.1 µM in the assay with HCT-116 colon; greater than 100 µM in the assay on HOP-92 NSCLC; greater than 100 µM in the assay with OVCAR-5 ovarian; greater than 100 µM with SF-268 CNS; 14.7 µM in the assay on SF-295 CNS. Further, the TGI was determined as 33.9 µM in the assay on SK-MEL-28 melanoma, 90.6 µM in the assay on TK-10 renal, 18.9 µM in the assay with UACC-62 melanoma and 61.8 µM in the assay with UO-31 renal.

Take `c1cc(-c2ccc(-c3ccsc3)s2)cs1`: the TGI in the assay with HCC-2998 colon, in the assay with HCT-116 colon, in the assay with HOP-92 NSCLC, in the assay with NCI-H460 lung, in the assay with OVCAR-5 ovarian and with SF-268 CNS was greater than 100 µM each time. For the same compound, the TGI in the assay on SF-295 CNS was greater than 100 µM; in the assay on TK-10 renal, greater than 100 µM; with UACC-62 melanoma it was greater than 100 µM; in the assay on UO-31 renal, 98.4 µM.

For `Cc1cc(O)c(/C=N/C(N)=S)c(=O)o1`, the TGI with HCC-2998 colon, in the assay with HCT-116 colon, in the assay with HOP-92 NSCLC, in the assay on NCI-H460 lung, in the assay with OVCAR-5 ovarian and in the assay on SF-268 CNS was greater than 100 µM in each case. Also, the TGI in the assay with SF-295 CNS is greater than 100 µM; in the assay on TK-10 renal, 90.5 µM; with UACC-62 melanoma, greater than 100 µM; in the assay on UO-31 renal, greater than 100 µM.

Consider `COC(=O)C1CCC(=O)N1CN(C(C)=O)c1cccc(O)c1` (stereo not given), for which the TGI in the assay on HCT-116 colon, in the assay on HOP-92 NSCLC, in the assay on NCI-H460 lung, with OVCAR-5 ovarian, in the assay on SF-268 CNS and in the assay on SF-295 CNS was greater than 100 µM in each case. The TGI in the assay on SK-MEL-28 melanoma, in the assay on TK-10 renal, with UACC-62 melanoma and with UO-31 renal was greater than 100 µM in each case.

Regarding `N#Cc1sc2nc3ccccc3n2c1N`, the TGI in the assay on HCC-2998 colon, in the assay with HCT-116 colon, in the assay with HOP-92 NSCLC, in the assay on OVCAR-5 ovarian, with SF-268 CNS and in the assay on SF-295 CNS was greater than 100 µM throughout. Also, the TGI in the assay with SK-MEL-28 melanoma, in the assay on TK-10 renal, in the assay with UACC-62 melanoma and with UO-31 renal was greater than 100 µM each time.

For `NC1=NC2(COC(c3ccccc3)(c3ccccc3)c3ccccc3)OC(COC(c3ccccc3)(c3ccccc3)c3ccccc3)C(O)C2O1` (stereo not given), the TGI with HCT-116 colon, in the assay with HOP-92 NSCLC, in the assay with OVCAR-5 ovarian, in the assay with SF-295 CNS, in the assay on SK-MEL-28 melanoma and in the assay with TK-10 renal was greater than 100 µM each time. The TGI in the assay on UACC-62 melanoma and in the assay on UO-31 renal was greater than 100 µM each time.

For the compound `Cc1[nH]n(-c2nc3c(c(=O)[nH]2)CCCC3)c(=O)c1CCO`, the TGI in the assay on HCC-2998 colon, in the assay with HCT-116 colon, in the assay on NCI-H460 lung, in the assay on OVCAR-5 ovarian, with SF-268 CNS and with SF-295 CNS was greater than 100 µM in each case. The TGI in the assay with SK-MEL-28 melanoma, in the assay with TK-10 renal, in the assay with UACC-62 melanoma and in the assay on UO-31 renal was greater than 100 µM throughout.

Consider `C[C@H]1CC[C@@]2(OC1)O[C@H]1C[C@H]3[C@@H]4CC[C@@H]5C[C@@H](OC6OC(CO)C(O)C(O)C6OC6OC(CO)C(O)C(O)C6O)CC[C@]5(C)[C@H]4CC[C@]3(C)[C@H]1[C@@H]2C` (stereo not given in full), for which the TGI with HCC-2998 colon worked out at 3.71 µM; in the assay with HCT-116 colon it was 3.7 µM; in the assay on HOP-92 NSCLC, 4.12 µM; in the assay with OVCAR-5 ovarian, 3.45 µM; in the assay with SF-268 CNS, 4.25 µM; in the assay on SF-295 CNS, 3.95 µM. For the same compound, the TGI in the assay with TK-10 renal was 3.61 µM; in the assay on UACC-62 melanoma it was 4.16 µM; in the assay on UO-31 renal, 3.67 µM.

For `O=[N+]([O-])c1ccc(/C=N/Nc2nc3ccccc3[nH]2)o1`, the TGI in the assay on HCT-116 colon is 36.7 µM; in the assay with HOP-92 NSCLC, 39.1 µM; in the assay on NCI-H460 lung it was greater than 100 µM; with OVCAR-5 ovarian, 49.8 µM; in the assay on SF-268 CNS, 67.6 µM; with SF-295 CNS it was 41.7 µM. The TGI was 23.8 µM with SK-MEL-28 melanoma, 50 µM with TK-10 renal and 47.5 µM in the assay on UO-31 renal.

On to `NS(=O)(=O)c1nnc(NC(=S)NC(=O)Nc2ccc(Cl)c(Cl)c2)s1`, for which the TGI in the assay with HCT-116 colon was 44.3 µM; with HOP-92 NSCLC it was 36.2 µM; in the assay with OVCAR-5 ovarian it was 67.7 µM; in the assay on SF-268 CNS it was greater than 100 µM; with SF-295 CNS it was 62.1 µM; with SK-MEL-28 melanoma, greater than 100 µM. Besides, the figures for the TGI with TK-10 renal, in the assay with UACC-62 melanoma and in the assay on UO-31 renal were greater than 100 µM, 33.1 µM and 48 µM, respectively.

Turning to `CCOC(=O)C1S(=O)(=O)OCCOS1(=O)=O`, the TGI in the assay with HCC-2998 colon, in the assay on HCT-116 colon, with HOP-92 NSCLC, in the assay with SF-268 CNS, with SF-295 CNS and with SK-MEL-28 melanoma was greater than 100 µM in each case. In addition, the TGI in the assay with TK-10 renal, with UACC-62 melanoma and with UO-31 renal was greater than 100 µM throughout.

As for `Cc1ccc(S(=O)(=O)N(CC(O)COc2ccccc2)c2c(F)cccc2F)cc1` (stereo not given), the TGI in the assay on HCC-2998 colon was 47.6 µM; in the assay with HOP-92 NSCLC, 8.48 µM; in the assay with NCI-H460 lung, 31.6 µM; with OVCAR-5 ovarian it was greater than 100 µM; in the assay on SF-268 CNS, 37.4 µM; in the assay with SF-295 CNS, 86 µM. The TGI with SK-MEL-28 melanoma was determined as 31 µM; in the assay with TK-10 renal, 97.5 µM; in the assay with UACC-62 melanoma, 36.3 µM; in the assay on UO-31 renal, 38.7 µM.

As to `O=C(O)CCCc1ccc2c(c1)CC1(C2)Cc2cc3c(cc2C1)CCCC3`, the TGI in the assay with HCC-2998 colon is 41.4 µM; with HCT-116 colon, 8.11 µM; in the assay with HOP-92 NSCLC it was 44.2 µM; in the assay on OVCAR-5 ovarian, 41.3 µM; with SF-295 CNS, 56.9 µM; with TK-10 renal it was greater than 100 µM. For the same compound, the TGI in the assay on UACC-62 melanoma is greater than 100 µM; with UO-31 renal, 34.2 µM.
